Assay results published in PMC7956382 (Molecules, 2021).

Test system: muscle nAChR-expressing cells
Format: cell-based, mouse

α-bungarotoxin [α-Bgt]
Inhibition of calcium transients: No transients were recorded
